This note sets out measurements from ChEMBL document CHEMBL3751751, “Targeting quorum sensing by designing azoline derivatives to inhibit the N-hexanoyl homoserine lactone-receptor CviR: Synthesis as well as biological and theoretical evaluations” (Bioorg Med Chem, 2015).

The source made the active and inactive calls. No cut-off for these calls is given here.

Data set [1] deals with T1, CviR transcriptional regulator (Chromobacterium violaceum) (UniProt D3W065).
T1 sequence (whole entry): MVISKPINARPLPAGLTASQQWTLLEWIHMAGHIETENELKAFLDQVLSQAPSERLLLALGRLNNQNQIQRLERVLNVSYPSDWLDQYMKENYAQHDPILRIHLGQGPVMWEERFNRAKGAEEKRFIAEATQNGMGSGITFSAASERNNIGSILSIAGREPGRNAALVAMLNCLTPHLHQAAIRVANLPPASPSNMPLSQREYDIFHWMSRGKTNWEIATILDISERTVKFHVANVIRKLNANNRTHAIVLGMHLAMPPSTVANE
Nature of the data set: Inhibition of CviR in Chromobacterium violaceum CV026 assessed as reduction of violacein production at 1 nM after 15 hrs.

Data set [2] concerns the target T1, CviR transcriptional regulator (Chromobacterium violaceum). As to the kind of experiment: Agonist activity at CviR in Chromobacterium violaceum CV026 assessed as induction of violacein production at 0.001 to 1000 uM after 15 hrs.
Data set [3] has the same target. Nature of the data set: Inhibition of CviR in Chromobacterium violaceum CV026 assessed as reduction of violacein production at 100 uM after 15 hrs.
Data set [4] has the same target. As to the kind of experiment: Inhibition of CviR in Chromobacterium violaceum CV026 assessed as reduction of violacein production at 0.001 to 1000 uM after 15 hrs.
The target is the same in data set [5]. Nature of the data set: Inhibition of CviR in Chromobacterium violaceum CV026 assessed as reduction of violacein production at 0.1 uM after 15 hrs.
For data set [6], the target named is T2, CviR transcriptional regulator (Chromobacterium violaceum, UniProt D3W065).
T2 sequence (D3W065 whole entry): T1 sequence (whole entry)
Nature of the data set: Inhibition of CviR in Chromobacterium violaceum CV026 assessed as reduction of violacein production after 15 hrs.

In data set [7] the target is T1, CviR transcriptional regulator (Chromobacterium violaceum). As to the kind of experiment: Inhibition of CviR in Chromobacterium violaceum CV026 assessed as reduction of violacein production at 1000 uM after 15 hrs.
In data set [8] the test system is Chromobacterium violaceum. As to the kind of experiment: Bactericidal activity in Chromobacterium violaceum CV026 at 1000 uM. The note with it: in vivo. Type of data set: ADME, organism-based.
The target of data set [9] is T1, CviR transcriptional regulator (Chromobacterium violaceum). Nature of the data set: Inhibition of CviR in Chromobacterium violaceum CV026 assessed as reduction of violacein production at 10 to 1000 uM after 15 hrs.
The test system of data set [10] is Chromobacterium violaceum. As to the kind of experiment: Bactericidal activity in Chromobacterium violaceum CV026 at 1 mM. Type of data set: ADME, organism-based. The conditions noted are these: in vivo, 1000 µM.
The test system of data set [11] is Chromobacterium violaceum. Nature of the data set: Bacteriostatic activity in Chromobacterium violaceum CV026 at 100 uM. The conditions noted are these: in vivo. Type of data set: ADME, organism-based.
For data set [12], the target named is T1, CviR transcriptional regulator (Chromobacterium violaceum). Nature of the data set: Inhibition of CviR in Chromobacterium violaceum CV026 assessed as reduction of violacein production at 100 nM after 15 hrs.

By inhibition is commonly meant how much of the control response was suppressed. On to `CCCCCCCCC(=O)Nc1ccc(C2=NCCN2)cc1`, for which the values for the inhibition in [1] and in data set [3] were 14% and 49%, respectively. Moreover, the outcome in [2] was inactive.
As to `CCCCCCCCCCCC(=O)NC1=NCCS1`, the result in data set [2] was inactive. Further, the inhibition entry in data set [4] was “inactive”.
With `O=C(NC1=NCCN1)c1ccccc1`, the result in data set [2] was inactive. Further, the inhibition result in [4] is “inactive”.
`CCCCCC(=O)Nc1ccc(C2=NCCN2)cc1`: the outcome in data set [2] was inactive. For the same compound, the inhibition entry in [5] is “Active”.
One may read the IC50 as the concentration that gives 50% inhibition. As to `O=C(Cc1ccccc1)NC1=NCCS1`, the IC50 in data set [6] was determined as 670 µM. Moreover, the outcome in data set [2] was inactive. In addition, the inhibition result in [7] is “Active”.
`CCCCCCCCCOc1ccc(C2=NCCCN2)cc1`: in [8], the Activity entry is recorded as “Toxic”. In addition, the result in data set [2] was inactive.
Take `COc1ccc(NC(=O)COc2ccc(C3=NCCN3)cc2)cc1`: the IC50 in [6] stood at 341 µM. For the same compound, in [2], the result was inactive. In addition, the inhibition entry in data set [9] was “Active”.
`CCCCCCCCCOc1ccc(C2=NCCN2)cc1`: the Activity result in data set [10] and in data set [11] was “Toxic” each time. In [2], the result was inactive.
Consider `CCCCCCOc1ccc(C2=NCCO2)cc1`, for which the IC50 in data set [6] was 97.4 µM. Further, the outcome in data set [2] was inactive. Also, the inhibition entry in data set [3] was “Active”.
With `CCCCCC(=O)NC1CCOC1=O` (stereo unspecified), the result in data set [2] was inactive.
`CCCCCCCCC(=O)NC1=NCCS1`: the outcome in [2] was inactive. The inhibition entry in data set [4] is “inactive”.
On to `CCCCCCOc1ccccc1`, for which the outcome in data set [2] was inactive. In data set [4], the inhibition result is “inactive”.
On to `O=C(COc1ccc(C2=NCCN2)cc1)Nc1ccccc1`, for which the 50% inhibitory concentration (IC50) in [6] turned out to be 66.1 µM. Besides, in [2], the outcome was inactive. In [9], the inhibition result was “Active”.
Take `CCCCCCCCCC(=O)NC1CCOC1=O` (stereo unspecified): the outcome in [2] was inactive. For the same compound, the inhibition in data set [12] is 51%.
Turning to `CCCCCCOc1ccc(C2=NCCN2)cc1`, the IC50 in [6] came to 90.9 µM. For the same compound, the result in [2] was inactive. For the same compound, in data set [3], the inhibition entry is “Active”.
Turning to `CCCCCC(=O)NC1=NCCS1`, the result in [2] was inactive. Moreover, in data set [4], the inhibition entry is “inactive”.
Turning to `O=C(NC1=NCCS1)c1ccccc1`, the outcome in [2] was inactive. The inhibition result in data set [4] was “inactive”.
In the case of `O=C(COc1ccc(C2=NCCN2)cc1)Nc1ccc(Cl)cc1`, the result in data set [2] was inactive.
